PubChem BioAssay (NCI)
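GI50 is the concentration that inhibits growth by half. Definition used: TGI = concentration required for complete inhibition of growth.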

Experiments:
Assay in all cases: growth of human tumour cells (NCI), 384-well format
SNB-19 CNS = tested on: SNB-19 CNS
HOP-92 NSCLC = tested on: HOP-92 NSCLC
IGROV1 ovarian = tested on: IGROV1 ovarian
HL-60(TB) leukemia = tested on: HL-60(TB) leukemia
TK-10 renal = tested on: TK-10 renal
A549 NSCLC = tested on: A549 NSCLC
MCF7 breast = tested on: MCF7 breast
BT-549 breast = tested on: BT-549 breast
OVCAR-4 ovarian = tested on: OVCAR-4 ovarian
U251 glioblastoma = tested on: U251 glioblastoma
COLO 205 colon = tested on: COLO 205 colon
OVCAR-5 ovarian = tested on: OVCAR-5 ovarian
SF-268 CNS = tested on: SF-268 CNS

With `C=CC(=O)N1CCN(CCCn2c(=O)c(-c3c(Cl)c(OC)cc(OC)c3Cl)cc3cnc(NC)nc32)CC1` the GI50 (SNB-19 CNS) was 5.11 µM, the TGI (SNB-19 CNS) was 17.3 µM and the GI50 (HOP-92 NSCLC) was 1.61 µM. It also gave a TGI (HOP-92 NSCLC) of 6.96 µM, a GI50 (IGROV1 ovarian) of 0.888 µM and a TGI (IGROV1 ovarian) of 7.23 µM. It also gave a GI50 (HL-60(TB) leukemia) of 1.55 µM, a TGI (HL-60(TB) leukemia) of 4.2 µM and a GI50 (TK-10 renal) of 5.98 µM. For the same compound, the TGI (TK-10 renal) was 19.5 µM, the GI50 (A549 NSCLC) was 3.23 µM and the TGI (A549 NSCLC) was 14.4 µM. For the same compound, the GI50 (MCF7 breast) was 7.95 µM, the TGI (MCF7 breast) was 20.7 µM and the GI50 (BT-549 breast) was 0.369 µM. It also gave a TGI (BT-549 breast) of 3.1 µM, a GI50 (OVCAR-4 ovarian) of 3.14 µM and a TGI (OVCAR-4 ovarian) of 18 µM. For the same compound, the GI50 (U251 glioblastoma) was 3.72 µM, the TGI (U251 glioblastoma) was 16 µM and the GI50 (COLO 205 colon) was 10.9 µM. It also gave a TGI (COLO 205 colon) of 22.9 µM, a GI50 (OVCAR-5 ovarian) of 18.1 µM and a TGI (OVCAR-5 ovarian) of 46.3 µM. For the same compound, the GI50 (SF-268 CNS) was 1.22 µM and the TGI (SF-268 CNS) was 7.03 µM.
